The target in one assay is T1, KRas G12D mutant (Homo sapiens, UniProt P01116, G12D).
T1 construct: made in house
Put plainly: Ras GTP binding domain inhibition assay (labeled-GTP competition, cell-free). The text has this: (§1) This is a competitive binding assay. It involves the immobilization of a protein on solid phase, interaction with a small molecule drug candidate, and then competitive binding with a labeled native GTP or GDP ligand.
(§2) In theory, the assay is suitable for use with any GTP or GDP binding protein.
(§3) The following method was developed as specific assay for the following proteins: KRas wild type, KRas Q61H mutant, KRas G12C mutant, KRas G12D mutant, Rac-1, and Rho-A.
(§4) The small GTPases proteins: KRas wild type. KRas Q61H mutant, KRas G12C mutant, KRas G12D mutants, Rac-1, and Rho-A were expressed as His-tagged proteins. In addition, the Guanosine nucleotide Exchange Factor (GEF) Sos protein (residues 556-1049) was expressed as a His-tagged protein. In cells, the guanine nucleotide exchange factor Sos protein promotes activation of Ras proteins by stimulating an exchange of GDP for GTP. The inclusion of Sos to the Ras GTP binding domain inhibition assay may be considered as an alternative representation of physiological cellular conditions for evaluating the inhibitory activity of some of the tested small molecules.
(§5) For the assay, all purified small GTPases proteins were diluted in Buffer-I or Buffer-II to a final concentration of 10-30 μg/mL. 200 μL of each diluted protein was added to a nickel-coated 96-well plate and incubated overnight at 4° C. Then the protein solution was discarded and 200 μL of Buffer-I or Buffer-II was added to each well in the presence of 1% DMSO. Compounds to be tested were added to the protein-coated wells at final concentration of 20 μM, and incubated for 3 hours at room temperature with and without 10-30 μg/mL of Sos added to the final hour of the incubation. When performing IC50 measurements a serial dilution of all tested concentrations was added. Then Cy3-GTP or Cy5-GTP was added to each well to a final concentration of 100 nM. The labeled GTP was incubated for 45 minutes at room temperature. Following GTP incubation, wells were washed 3× in Buffer-I or Buffer-II and 200 μL of Buffer-I or Buffer-II was added to each well. Following washes, the amount of bound labeled-GTP was measured using a SpectraMax M3 (Molecular Devices).

In another assay the target is T2, KRas G12C mutant (Homo sapiens, UniProt P01116, G12C).
T2 construct: made in house
Described as above.
From the text: as §1, §2, §3, §4, §5

In a further assay the target is T3, KRas Q61H mutant (Homo sapiens, UniProt P01116, Q61H).
T3 construct: made in house
Described as above.
From the text: as §1, §2, §3, §4, §5

In assay [1] the test system is ERK1/2 phosphorylation in Panc-1 cells. Put plainly: Western ERK1/2 cell-based phosphorylation assay. The following applies: at 10 μM, values in brackets < > are activation %, not inhibition. The arrangement: species or system human. The protocol: Cell lines: Human tumor-derived pancreatic cancer cell line Panc-1 was purchased from American Type Culture Collection and grown in complete DMEM-High Glucose, supplemented with penicillin (100 U/mL), streptomycin (100 μg/mL), and 10% heat-inactivated FBS at 37° C. in a humidified incubator with 5% CO2.
Method: Cells were plated at 350000 cells/well density in a 12-well plate, allowed 3 hours to adhere to the plate, then starved in the appropriate medium in the presence of 0.5% FBS overnight. The small molecules to be tested were added to the cells in the final concentration of 10 μM in the presence of 0.3% DMSO for 6 hours incubation at 37° C. For IC50 value determination, serial dilutions of compounds were added to cells under the same conditions. Next, cells were stimulated with 1.5 ng/ml EGF for 15 minutes then cells were lysed with lysis buffer containing 1% Triton X-100, EDTA, and Halt™ Protease & Phosphatase Inhibitor Cocktail (Thermo Scientific). Protein concentration was assessed by BCA protein assay (Thermo Scientific). Phosphorylation level of ERK1/2 was determined by western blot.
Western blot protocol: Equal amounts of protein (15-50 μg) were separated by SDS-PAGE and transferred to nitrocellulose membranes (Invitrogen by Thermo Fisher Scientific). The membrane was stained with Ponceau S Stain (Boston BioProducts) to verify uniform protein loading. Membranes were blocked with 10% milk and phosphorylation levels of ERK1/2 were assessed by incubating overnight at 4° C. with anti-phospho-p44/42 (Thr202/Tyr204) antibody (Cell Signaling) followed by HRP-conjugated secondary antibody (Jackson Immunoresearch, West Grove, Pa.). Bands were incubated in Amersham ECL Prime Western Blotting Detection Reagent (GE Healthcare) and visualized using the ChemiDoc MP imaging system (Bio-Rad). Protocol for Western AKT cell-based phosphorylation assay

A further assay concerns the target Rho-A (Homo sapiens, UniProt P61586). Put plainly: Ras GTP binding domain inhibition assay (labeled-GTP competition, cell-free). More on the design: made in house.
From the text: as §1, §2, §3, §4, §5

The target of another assay is Rac-1 (Homo sapiens, UniProt P63000). The description is as above. The arrangement: made in house.
From the text: as §1, §2, §3, §4, §5

In a further assay the target is KRas wild type (Homo sapiens, UniProt P01116). Described as above. More on the design: made in house.
From the text: as §1, §2, §3, §4, §5

Where [2] appears, read: with SOS, read-out: KRas G12C mutant + SOS: % inh.
[3] abbreviates: without SOS, read-out: KRas G12C mutant: % inh.
[4] abbreviates: with SOS, read-out: KRas Q61H mutant + SOS: % inh.
The mark [5] stands for this setting: without SOS, read-out: KRas Q61H mutant: % inh.
The mark [6] stands for this setting: without SOS, read-out: Rho-A: % inh.
[7] abbreviates: without SOS, read-out: Rac-1: % inh.
Setting [8] is: with SOS, read-out: KRas wild type + SOS: % inh.
Where [9] appears, read: without SOS, read-out: KRas wild type: % inh.

The results in this text go back to patent publication US20230227466A1, “SUBSTITUTED THIENOPYRIMIDINES THAT INTERACT WITH THE RAS SUPERFAMILY FOR THE TREATMENT OF CANCERS, INFLAMMATORY DISEASES, RASOPATHIES, AND FIBROTIC DISEASE” (SHY Therapeutics, LLC, priority 2020, published 2023).

Read-outs that look alike come from different tables or passages of the source.

A word on the IC50: it is the point on the concentration scale where inhibition reaches its midpoint. As for `O=C(Nc1ccccc1)c1nc(O)c2scc(-c3ccccn3)c2n1` [Compound 23, 4-Hydroxy-N-phenyl-7-(pyridin-2-yl)thieno[3,2-d]pyrimidine-2-carboxamide], the inhibition at 20 µM at KRas G12D mutant (with SOS, read-out: KRas G12D mutant + SOS: % inh.) was 1 to 25%; at KRas G12D mutant (without SOS, read-out: KRas G12D mutant: % inh.), 1 to 25%; at KRas G12C mutant (setting [2]), 0%; on KRas G12C mutant (setting [3]), 1 to 25%; at KRas Q61H mutant (setting [4]) it was 1 to 25%; at KRas Q61H mutant (setting [5]), 0%. For the same compound, the inhibition at 20 µM at Rho-A (with SOS, read-out: Rho-A + SOS: % inh.) lay within 1 to 25%; on Rho-A (setting [6]), 1 to 25%; at Rac-1 (with SOS, read-out: Rac-1 + SOS: % inh.) it was 1 to 25%; at Rac-1 (setting [7]), 1 to 25%; at KRas wild type (setting [8]), 1 to 25%; at KRas wild type (setting [9]), 1 to 25%. For the same compound, at KRas Q61H mutant (with SOS), the IC50 was greater than 10 µM. Moreover, the “% inh of ERK1/2 phosphorylation in PANC-1” value (from here on “% inh”) in assay [1] is 0 (0% inhibition).

Consider `COc1cccc(Nc2nc(-c3nccn3C)nc3sc(-c4ccn(C(C)C)n4)c(C)c23)c1` [Compound 64, 6-(1-Isopropyl-1H-pyrazol-3-yl)-N-(3-methoxyphenyl)-5-methyl-2-(1-methyl-1H-imidazol-2-yl)thieno[2,3-d]pyrimidin-4-amine], for which the inhibition at 20 µM lay in the range of 76 to 100% on KRas G12C mutant (setting [2]); 26 to 50% on KRas G12C mutant (setting [3]); 76 to 100% at KRas Q61H mutant (setting [4]); 26 to 50% at KRas Q61H mutant (setting [5]); 26 to 50% at Rho-A (setting [6]); 26 to 50% on Rac-1 (setting [7]). Further, the inhibition at 20 µM at KRas wild type (setting [8]) was 76 to 100%; on KRas wild type (setting [9]) it was 0%. Also, the “% inh” value in assay [1] was “D (76-100% inhibition)”.

Turning to `Cc1c(-c2ccn(C(C)C)n2)sc2nc(-c3nccn3C)nc(NCc3n[nH]c(=O)n3C)c12` [Compound 60, 5-(((6-(1-Isopropyl-1H-pyrazol-3-yl)-5-methyl-2-(1-methyl-1H-imidazol-2-yl)thieno[2,3-d]pyrimidin-4-yl)amino)methyl)-4-methyl-2,4-dihydro-3H-1,2,4-triazol-3-one], the inhibition at 20 µM at KRas G12C mutant (setting [2]) lay within 51 to 75%; on KRas G12C mutant (setting [3]) it was 26 to 50%; on KRas Q61H mutant (setting [4]), 51 to 75%; at KRas Q61H mutant (setting [5]), 51 to 75%; on Rho-A (setting [6]), 76 to 100%; on Rac-1 (setting [7]) it was 51 to 75%. For the same compound, the inhibition at 20 µM at KRas wild type (setting [8]) and on KRas wild type (setting [9]) was 51 to 75% each time. The “% inh” value in assay [1] is reported as 0 (0% inhibition).

In the case of `Cc1c(-c2ccn(C(C)C)n2)sc2nc(-c3nccn3C)nc(NCc3c[nH]cn3)c12` [Compound 59, N-((1H-Imidazol-4-yl)methyl)-6-(1-isopropyl-1H-pyrazol-3-yl)-5-methyl-2-(1-methyl-1H-imidazol-2-yl)thieno[2,3-d]pyrimidin-4-amine], the inhibition at 20 µM on KRas G12C mutant (setting [2]) lay within 76 to 100%; on KRas G12C mutant (setting [3]) it was 51 to 75%; at KRas Q61H mutant (setting [4]) it was 76 to 100%; on KRas Q61H mutant (setting [5]), 51 to 75%; at Rho-A (setting [6]), 51 to 75%; at Rac-1 (setting [7]) it was 51 to 75%. Also, the inhibition at 20 µM on KRas wild type (setting [8]) was 76 to 100%; at KRas wild type (setting [9]), 26 to 50%. Moreover, the “% inh” value in assay [1] is on record as 0 (0% inhibition).

Consider `COC1CCCN(c2nc(-c3nccn3C)nc3sc(-c4ccn(C(C)C)n4)c(C(F)(F)F)c23)C1` (racemic) [Compound 75, Rac-6-(1-Isopropyl-1H-pyrazol-3-yl)-4-(3-methoxypiperidin-1-yl)-2-(1-methyl-1H-imidazol-2-yl)-5-(trifluoromethyl)thieno[2,3-d]pyrimidine], for which the inhibition at 20 µM on KRas G12C mutant (setting [2]) lay in the range of 51 to 75%; on KRas G12C mutant (setting [3]), 26 to 50%; at KRas Q61H mutant (setting [4]), 26 to 50%; on KRas Q61H mutant (setting [5]), 51 to 75%; on Rho-A (setting [6]), 51 to 75%; on Rac-1 (setting [7]), 1 to 25%. The inhibition at 20 µM fell in the range of 51 to 75% on KRas wild type (setting [8]) and 26 to 50% at KRas wild type (setting [9]). Also, in assay [1], the “% inh” value is reported as “D (76-100% inhibition)”.

On to `CO[C@H]1CC[C@@H](Nc2nc(-c3nccn3C)nc3sc(-c4ccn(C(C)C)n4)c(C(F)(F)F)c23)C1` (racemic) [Compound 73, Rac-6-(1-isopropyl-1H-pyrazol-3-yl)-N-((1R,3S)-3-methoxycyclopentyl)-2-(1-methyl-1H-imidazol-2-yl)-5-(trifluoromethyl)thieno[2,3-d]pyrimidin-4-amine], for which the inhibition at 20 µM on KRas G12C mutant (setting [2]) fell in the range of 76 to 100%; on KRas G12C mutant (setting [3]), 1 to 25%; on KRas Q61H mutant (setting [4]) it was 51 to 75%; on KRas Q61H mutant (setting [5]), 51 to 75%; on Rho-A (setting [6]), 51 to 75%; on Rac-1 (setting [7]) it was 1 to 25%. The inhibition at 20 µM on KRas wild type (setting [8]) lay in the range of 76 to 100%; on KRas wild type (setting [9]) it was 1 to 25%. Besides, in assay [1], the “% inh” value is reported as “D (76-100% inhibition)”.

For the compound `CO[C@@H]1CC[C@H]1CNc1nc(-c2nccn2C)nc2sc(-c3ccn(C(C)C)n3)c(C)c12` (racemic) [Compound 61, rac-6-(1-Isopropyl-1H-pyrazol-3-yl)-N-(((1S,2R)-2-methoxycyclobutyl)methyl)-5-methyl-2-(1-methyl-1H-imidazol-2-yl)thieno[2,3-d]pyrimidin-4-amine], the inhibition at 20 µM was 76 to 100% on KRas G12C mutant (setting [2]); 51 to 75% on KRas G12C mutant (setting [3]); 76 to 100% on KRas Q61H mutant (setting [4]); 76 to 100% at KRas Q61H mutant (setting [5]); 51 to 75% at Rho-A (setting [6]); 26 to 50% at Rac-1 (setting [7]). Moreover, the inhibition at 20 µM on KRas wild type (setting [8]) and at KRas wild type (setting [9]) was 76 to 100% each time. The “% inh” value in assay [1] is given as “D (76-100% inhibition)”.

Turning to `COCC1CCN(c2nc(-c3nccn3C)nc3sc(-c4ccn(C(C)C)n4)c(C(F)(F)F)c23)C1` (racemic) [Compound 74, Rac-6-(1-Isopropyl-1H-pyrazol-3-yl)-4-(3-(methoxymethyl)pyrrolidin-1-yl)-2-(1-methyl-1H-imidazol-2-yl)-5-(trifluoromethyl)thieno[2,3-d]pyrimidine], the inhibition at 20 µM was in the range of 51 to 75% on KRas G12C mutant (setting [2]); 1 to 25% on KRas G12C mutant (setting [3]); 51 to 75% on KRas Q61H mutant (setting [4]); 51 to 75% on KRas Q61H mutant (setting [5]); 51 to 75% at Rho-A (setting [6]); 1 to 25% at Rac-1 (setting [7]). The inhibition at 20 µM at KRas wild type (setting [8]) was 76 to 100%; at KRas wild type (setting [9]) it was 26 to 50%. Also, the “% inh” value in assay [1] is “D (76-100% inhibition)”.
